The source made the active and inactive calls. The calls are words filed in the database; no cut-off is given here.

Data set [1] concerns the target T1, NAD-dependent protein deacetylase sirtuin-1 (Homo sapiens) (UniProt Q96EB6).
T1 sequence (whole entry): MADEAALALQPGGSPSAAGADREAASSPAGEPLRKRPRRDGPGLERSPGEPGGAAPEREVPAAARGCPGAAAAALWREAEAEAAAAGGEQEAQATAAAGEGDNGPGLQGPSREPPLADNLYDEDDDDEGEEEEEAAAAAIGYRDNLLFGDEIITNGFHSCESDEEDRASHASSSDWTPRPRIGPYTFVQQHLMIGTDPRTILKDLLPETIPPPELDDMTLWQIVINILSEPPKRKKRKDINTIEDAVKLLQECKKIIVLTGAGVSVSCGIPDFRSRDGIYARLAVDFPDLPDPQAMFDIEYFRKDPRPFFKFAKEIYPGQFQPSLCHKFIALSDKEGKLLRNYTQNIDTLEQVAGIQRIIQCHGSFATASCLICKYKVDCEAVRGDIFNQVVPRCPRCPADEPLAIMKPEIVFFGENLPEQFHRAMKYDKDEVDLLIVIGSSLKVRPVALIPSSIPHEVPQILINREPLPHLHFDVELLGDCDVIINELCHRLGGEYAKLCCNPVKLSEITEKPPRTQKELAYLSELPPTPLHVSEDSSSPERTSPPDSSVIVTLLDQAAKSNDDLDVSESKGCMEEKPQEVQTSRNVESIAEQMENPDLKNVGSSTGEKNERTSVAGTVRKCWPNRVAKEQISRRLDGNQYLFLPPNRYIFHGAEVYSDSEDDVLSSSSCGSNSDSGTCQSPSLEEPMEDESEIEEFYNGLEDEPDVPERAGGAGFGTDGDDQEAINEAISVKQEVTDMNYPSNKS
Description: Activation of SIRT1 (unknown origin) assessed as increase in NAD-dependent deacetylase activity using fluoro-substrate peptide by fluorometric assay relative to resveratrol.

The test system of data set [2] is Mus musculus. Description: Activation of SIRT1 in C57BLKS/J-db/db mouse assessed as reduction in p53 acetylation at 5 mg/kg/day dosed via oral gavage for 4 weeks by Western blot method. Format: functional, organism-based. (Immunoblotting shows a protein as a band on a membrane.)
In data set [3] the test system is Mus musculus. Description: Effect on body weight in C57BLKS/J-db/db mouse at 5 mg/kg/day dosed via oral gavage for 30 days. It counts as ADME, organism-based. Conditions: in vivo, 720 h.
Data set [4] concerns Mus musculus. The data set can be described thus: Effect on food intake in C57BLKS/J-db/db mouse at 5 mg/kg/day dosed via oral gavage for 30 days. Format: ADME, organism-based. Conditions: in vivo, 720 h.
Data set [5] has as its system Mus musculus. Description: Reduction in serum triglyceride level in C57BLKS/J-db/db mouse at 5 mg/kg/day dosed via oral gavage for 30 days by colorimetric assay. Format: functional, organism-based.
Data set [6] deals with Mus musculus. The data set can be described thus: Reduction in serum total cholesterol level in C57BLKS/J-db/db mouse at 5 mg/kg/day dosed via oral gavage for 30 days by colorimetric assay. Format: functional, organism-based.
Data set [7] relates to Mus musculus. The data set can be described thus: Reduction in serum NEFA level in C57BLKS/J-db/db mouse at 5 mg/kg/day dosed via oral gavage for 30 days by colorimetric assay. It counts as functional, organism-based.
The test system of data set [8] is Mus musculus. The data set can be described thus: Improvement in insulin resistance in C57BLKS/J-db/db mouse assessed as change in glucose level at 5 mg/kg/day dosed via oral gavage for 3 weeks by oral glucose tolerance test. Format: functional, organism-based.
Data set [9] concerns Mus musculus. Description: Improvement in insulin resistance in C57BLKS/J-db/db mouse assessed as reduction in fasting serum glucose level at 5 mg/kg/day dosed via oral gavage for 3 weeks by oral glucose tolerance test. Format: functional, organism-based.
Data set [10] has as its system Mus musculus. Description: Improvement in insulin resistance in C57BLKS/J-db/db mouse assessed as reduction in serum insulin level at 5 mg/kg/day dosed via oral gavage for 3 weeks by oral glucose tolerance test. It counts as functional, organism-based.
The test system of data set [11] is Mus musculus. Description: Improvement in insulin resistance in C57BLKS/J-db/db mouse assessed as restoration of liver IRS1 Tyr465 phosphorylation at 5 mg/kg/day dosed via oral gavage for 3 weeks during oral glucose tolerance test by Western blot. Format: functional, organism-based.
In data set [12] the test system is Mus musculus. Description: Improvement in insulin resistance in C57BLKS/J-db/db mouse assessed as restoration of liver Akt Ser473 phosphorylation at 5 mg/kg/day dosed via oral gavage for 3 weeks during oral glucose tolerance test by Western blot. Format: functional, organism-based.
In data set [13] the test system is Mus musculus. Description: Suppression of hepatic steatosis in C57BLKS/J-db/db mouse assessed as reduction in liver lipid droplets at 5 mg/kg/day dosed via oral gavage for 4 weeks by hematoxylin-eosin staining based assay. It counts as functional, organism-based.
In data set [14] the test system is Mus musculus. Description: Reduction in hepatic triglyceride level in C57BLKS/J-db/db mouse at 5 mg/kg/day dosed via oral gavage for 4 weeks by colorimetric assay. Format: functional, organism-based.
In data set [15] the test system is Mus musculus. The data set can be described thus: Reduction in hepatic SREBP-1c mRNA expression in C57BLKS/J-db/db mouse at 5 mg/kg/day dosed via oral gavage for 4 weeks by qRT-PCR method. Format: functional, organism-based. For orientation: In qPCR the cycle at which signal appears reflects the starting amount.
In data set [16] the test system is Mus musculus. The data set can be described thus: Reduction in hepatic SREBP-1a mRNA expression in C57BLKS/J-db/db mouse at 5 mg/kg/day dosed via oral gavage for 4 weeks by qRT-PCR method. Format: functional, organism-based.
The subject of data set [17] is Mus musculus. The data set can be described thus: Reduction in hepatic FASN mRNA expression in C57BLKS/J-db/db mouse at 5 mg/kg/day dosed via oral gavage for 4 weeks by qRT-PCR method. It counts as functional, organism-based.
In data set [18] the test system is Mus musculus. The data set can be described thus: Reduction in hepatic ACC mRNA expression in C57BLKS/J-db/db mouse at 5 mg/kg/day dosed via oral gavage for 4 weeks by qRT-PCR method. Format: functional, organism-based.
The subject of data set [19] is Mus musculus. The data set can be described thus: Effect on beta-oxidation related gene expression in C57BLKS/J-db/db mouse assessed as CPT1 mRNA expression at 5 mg/kg/day dosed via oral gavage for 4 weeks by qRT-PCR method. Format: functional, organism-based.
The subject of data set [20] is Mus musculus. Description: Effect on beta-oxidation related gene expression in C57BLKS/J-db/db mouse assessed as ACOX1 mRNA expression at 5 mg/kg/day dosed via oral gavage for 4 weeks by qRT-PCR method. Format: functional, organism-based.

For `O=C(Nc1ccccc1-c1nc2cc(CN3CCN(C4CCCCC4)CC3)ccc2o1)c1ccc2ccccc2c1`, the fold change (FC) in [1] amounted to 1.5. The result with Mus musculus [2], with Mus musculus [5], with Mus musculus [6], in the data set with Mus musculus [7], in the data set with Mus musculus [8] and with Mus musculus [9] was Active. Moreover, the result in the data set with Mus musculus [10], with Mus musculus [11], with Mus musculus [12], in the data set with Mus musculus [13], with Mus musculus [14] and in the data set with Mus musculus [15] was Active. Moreover, the result with Mus musculus [16], with Mus musculus [17] and in the data set on Mus musculus [18] was Active. For the same molecule, the Activity entry in the data set with Mus musculus [3] and in the data set on Mus musculus [4] was “Non-Toxic” each time. For the same molecule, the outcome with Mus musculus [19] and with Mus musculus [20] was inactive.

The values above are taken from ChEMBL document CHEMBL4184254, “Novel SIRT1 activator MHY2233 improves glucose tolerance and reduces hepatic lipid accumulation in db/db mice” (Bioorg Med Chem Lett, 2018).
